Reference: PMC12434668 (Journal of Medicinal Chemistry, 2025)
Values joined by “and” are separate entries in the source; they are usually repeats but may differ in a detail not shown here. Identical values can stand only once. Like-named read-outs stand apart in the source and are kept apart here.

Tests used:
[1] = Mouse pharmacokinetic analyses (i.v. and oral); type: in vivo; conditions: plasma, iv
Method: For PK analysis, mice were administered intravenously or orally with compound formulated in 10% ethanol and 10% Cremophor EL. Compound 13 dosing was also screened with 20% Phosphal IPG, 20% Phosphal MCT, 10% HP-β-CD, and 40% HP-β-CD. Plasma samples were obtained at predefined time points and compound concentrations in plasma were measured by quantitative HPLC–MS/MS using an internal standard. Calibration and quality control samples were prepared using blank plasma from untreated animals. Samples were precipitated with acetonitrile and injected into a HPLC system (Agilent 1200). Separation was performed by gradients of 5 mmol/L ammonium acetate pH 5.0 and acetonitrile with 0.1% formic acid on a Luna C8 reversed-phase column with 2.5 μm particles (Phenomenex). The HPLC was interfaced by ESI operated in positive ionization mode to a triple quadrupole mass spectrometer (6500+ Triple Quad System, SCIEX) operated in multiple reaction monitoring mode. Chromatograms were analyzed with Analyst (SCIEX) and pharmacokinetic parameters were calculated by noncompartmental analysis using proprietary software.

Mcl-1 = biological target: T1, Mcl-1 (Homo sapiens, UniProt Q07820); assay: TR-FRET binding assay (FITC-Bak peptide competition)
T1 construct: Briefly, a previously reported construct was subcloned into an expression vector (pDEST-HisMBP); MBP (from vector pDEST-HisMBP); made in house; host or cells: Escherichia coli BL21 CodonPlus (DE3) RIL
T1 sequence (Q07820 whole entry): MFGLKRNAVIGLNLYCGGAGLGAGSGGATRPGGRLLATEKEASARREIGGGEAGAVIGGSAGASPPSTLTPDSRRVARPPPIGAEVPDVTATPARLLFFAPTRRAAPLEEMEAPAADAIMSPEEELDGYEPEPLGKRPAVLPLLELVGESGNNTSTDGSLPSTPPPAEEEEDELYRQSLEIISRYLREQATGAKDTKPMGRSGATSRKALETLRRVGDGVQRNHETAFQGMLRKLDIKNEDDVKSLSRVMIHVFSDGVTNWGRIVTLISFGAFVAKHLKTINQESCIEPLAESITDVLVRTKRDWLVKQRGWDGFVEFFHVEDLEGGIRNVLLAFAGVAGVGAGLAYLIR
From the text: Protein preparation was described previously. Briefly, a previously reported construct was subcloned into an expression vector (pDEST-HisMBP) expressed in Escherichia coli BL21 CodonPlus (DE3) RIL (Stratagene) and purified through nickel-column and size-exclusion chromatography sequentially.
Mixtures containing vehicle without compound served as a negative control, while mixtures containing no protein served as a positive control. […] Two or more repeats were obtained and average K i values are reported.

NCI-H929 cells = assay: In vitro proliferation assay (CellTiter-Glo), H929; type: cell-based; conditions: Homo sapiens
Method: (§1) NCI-H929, A427, and K562 cell lines were obtained from ATCC. NCI-H929 cells were cultured in RPMI1640 (ATCC-formulated, Catalog No. 30-2001) + 10% fetal calf serum (FCS, GIBCO BRL, Cat. No. 26140) + 0.05 mM mercaptoethanol. A-427 cells were cultured in RPMI1640 (ATCC-formulated, Catalog No. 30-2001) + 10% fetal calf serum (FCS, GIBCO BRL, Cat. No. 26140). K562 cell lines were cultured in Iscove’s Modified Dulbecco Medium (Gibco-formulated, purchased from Thermo-Fisher, Cat. No. 12440-053) + 10% fetal bovine serum (FBS, Sigma-Aldrich, F2442). All cell lines were cultured at 37 °C with 5% CO2 in a humidified incubator and have been regularly tested negatively for mycoplasm contamination.
(§2) Cells were seeded at 750–1500 cells per well (depending on growth kinetics) in 384-well plates (Corning, Catalog No. 3707) or at 3000 cells per well in 96-well plates in the respective growth medium and allowed to settle overnight. Suspension cells were plated immediately before compound addition. Adherent cell lines were incubated overnight at 37 °C in a tissue culture incubator prior to compound addition. Compounds were added in triplicates using an HP D300e Digital Dispenser (Hewlett-Packard) or manually at the concentrations indicated and total volumes were normalized using DMSO backfill, with final DMSO concentration of 0.5%. Control wells were treated with DMSO only. Following incubation for 72 or 96 h, a Cell Titer-Glo assay was conducted following the manufacturer recommendations (Promega, G9243) and luminescence was measured using a Victor X5 (PerkinElmer) or a Cytation 3 (Biotek) plate reader. % Viability was defined as relative luminescence units (RLU) of each well divided by the RLU of cells on day 0. Four parameter sigmoidal dose–response curves were generated and IC50 values were determined using XLFit (IDBS) software (eq 205) or in-house software. Drug combination experiments were performed in 96-well or 384-well format and drug synergy was determined using the BLISS model (PMID: 26171228).

A427 cells = assay: In vitro proliferation assay (CellTiter-Glo), A427; type: cell-based; conditions: Homo sapiens, A-427
Method: as §1, §2

K562 cells = assay: In vitro proliferation counterscreen, Mcl-1 insensitive K562; type: cell-based; conditions: Homo sapiens; Mcl-1 insensitive K562; top concentration tested 12.5 µM
Method: NCI-H929, A427, and K562 cell lines were obtained from ATCC.
Suspension cells were plated immediately before compound addition. Adherent cell lines were incubated overnight at 37 °C in a tissue culture incubator prior to compound addition. Compounds were added in triplicates using an HP D300e Digital Dispenser (Hewlett-Packard) or manually at the concentrations indicated and total volumes were normalized using DMSO backfill, with final DMSO concentration of 0.5%. Control wells were treated with DMSO only. Following incubation for 72 or 96 h, a Cell Titer-Glo assay was conducted following the manufacturer recommendations (Promega, G9243) and luminescence was measured using a Victor X5 (PerkinElmer) or a Cytation 3 (Biotek) plate reader. % Viability was defined as relative luminescence units (RLU) of each well divided by the RLU of cells on day 0.

[2] = system: caspase 3/7 in H929 cells; assay: Caspase 3/7 induction assay (Caspase-Glo), H929; type: cell-based; conditions: compound treatment for 3 h; for EC50: Homo sapiens, NCI-H929
Method: (§3) Cells were treated with a 10-point compound titration and incubated at 37 °C for 3 h.

[3] = system: caspase 3/7 in A427 cells; assay: Caspase 3/7 induction assay (Caspase-Glo), A427; type: cell-based; conditions: compound treatment for 3 h; for EC50: Homo sapiens, A-427
Method: as §3

[4] = system: caspase 3/7 in K562 cells; assay: Caspase 3/7 induction assay (Caspase-Glo), K562; type: cell-based; conditions: compound treatment for 3 h; for EC50: Homo sapiens, K562
Method: as §3

[5] = dosed at 20 mg/kg, read-out: i.v. mouse CL
[6] = supplementary CSV, unit not given (Table 1: 20 mg/kg, 14 and 16 at 10 mg/kg), read-out: CL
[7] = in the presence of 1% fetal bovine serum, average of at least n = 2, read-out: TRFRET, Mcl-1 Ki
[8] = supplementary CSV, unit inferred, read-out: Ki TRFRET
[9] = supplementary CSV, unit inferred
[10] = H929 cell line, average of at least n = 2, triplicate
[11] = A427 cell line, average of at least n = 2, triplicate
[12] = dosed at 10 mg/kg, read-out: i.v. mouse CL

Row | Compound | clearance [1, 5] | clearance [1, 6] | Ki (Mcl-1; [7]) | Ki (Mcl-1; [8]) | GI50 (NCI-H929 cells; [9]) | GI50 (NCI-H929 cells; [10]) | EC50 [2] | EC50 [3] | EC50 [4] | clearance [1, 12] | GI50 (A427 cells; [9]) | GI50 (K562 cells) | GI50 (A427 cells; [11]) | H929 Caspase 3/7 maximum activity, fold over vehicle (FoV) [2] | A427 Caspase 3/7 fold over vehicle (FoV) [3] | K562 Caspase 3/7 fold over vehicle (FoV) [4]
1 | Cc1cc2c3c(c1)cc(C(=O)O)n3CCCOCc1nn(C)cc1-c1c(Cl)ccc3c(CCCOc4cc(C)c(Cl)c(C)c4)c4n(c13)[C@H](C)CN2C4=O [Compound 14, (2^63^4 S a ,1^72^2 R a ,2^4 R)-2^7-Chloro-2^10-(3-(4-chloro-3,5-dimethylphenoxy)propyl)-1^5,2^4,3^1-trimethyl-2^1-oxo-2^1,2^2,2^3,2^4-tetrahydro-1^1 H,3^1 H-5-oxa-2(2,6)-pyrazino[1,2-a]indola-1(7,1)-indola-3(4,3)-pyrazolacyclooctaphane-1^2-carboxylic Acid] |  | 8.4 mL/min/kg | < 0.08 nM | 0.03 nM |  | 64 ± 17 nM | 45 nM | 35 nM | > 3120 nM | 8.4 mL/min/kg |  | > 10200 nM | 195 ± 14 nM | 17 fold | 16 fold | 1.3 fold
2 | COc1cc2c3c(c1)cc(C(=O)O)n3CCCOCc1nn(C)cc1-c1c(Cl)ccc3c(CCCOc4cc(C)c(Cl)c(C)c4)c4n(c13)[C@H](C)CN2C4=O [Compound 15, (2^63^4 S a ,1^72^2 R a ,2^4 R)-2^7-Chloro-2^10-(3-(4-chloro-3,5-dimethylphenoxy)propyl)-1^5-methoxy-2^4,3^1-dimethyl-2^1-oxo-2^1,2^2,2^3,2^4-tetrahydro-1^1 H,3^1 H-5-oxa-2(2,6)-pyrazino[1,2-a]indola-1(7,1)-indola-3(4,3)-pyrazolacyclooctaphane-1^2-carboxylic Acid] |  |  | < 0.08 nM | 0.04 nM |  | 38 ± 11 nM | 43 nM | 34 nM | > 3120 nM |  |  | > 12500 nM | 60 ± 24 nM | 17 fold | 15 fold | 1.3 fold
3 | COc1ccc2c3c1cc(C(=O)O)n3CCCOCc1nn(C)cc1-c1c(Cl)ccc3c(CCCOc4cc(C)c(Cl)c(C)c4)c4n(c13)[C@H](C)CN2C4=O [Compound 16, (2^63^4 S a ,1^72^2 R a ,2^4 R)-2^7-Chloro-2^10-(3-(4-chloro-3,5-dimethylphenoxy)propyl)-1^4-methoxy-2^4,3^1-dimethyl-2^1-oxo-2^1,2^2,2^3,2^4-tetrahydro-1^1 H,3^1 H-5-oxa-2(2,6)-pyrazino[1,2-a]indola-1(7,1)-indola-3(4,3)-pyrazolacyclooctaphane-1^2-carboxylic Acid] |  | 17.3 mL/min/kg | < 0.08 nM |  |  | 27 ± 3 nM | 16 nM | 24 nM | > 3120 nM | 17.3 mL/min/kg |  | > 12500 nM | 45 ± 17 nM | 16 fold and 16 (16) fold | 15 fold | 1.3 fold
4 | COc1cc2c3c(cc(C(=O)O)n3CCCOCc3nn(C)cc3-c3cccc4c(CCCOc5cc(C)c(Cl)c(C)c5)c5n(c34)[C@H](C)CN2C5=O)c1OC [Compound 23, (2^63^4 R a ,1^72^2 R a ,2^4 R)-2^10-(3-(4-Chloro-3,5-dimethylphenoxy)propyl)-1^4,1^5-dimethoxy-2^4,3^1-dimethyl-2^1-oxo-2^1,2^2,2^3,2^4-tetrahydro-1^1 H,3^1 H-5-oxa-2(2,6)-pyrazino[1,2-a]indola-1(7,1)-indola-3(4,3)-pyrazolacyclooctaphane-1^2-carboxylic Acid] |  |  | < 0.08 nM | < 0.02 nM |  | 15 ± 4 nM |  |  |  |  |  | > 12500 nM | 32 ± 4 nM |  |  | 
5 | COc1c(OCC2CCOCC2)cc(N2C[C@@H](C)n3c(c(CCCOc4cc(C)c(Cl)c(C)c4)c4ccc(Cl)c(-c5c(C)nc(C)nc5C)c43)C2=O)c2c1cc(C(=O)N(C)C)n2C [Compound 24, (R)-7-(7-chloro-10-(3-(4-chloro-3,5-dimethylphenoxy)propyl)-4-methyl-1-oxo-6-(2,4,6-trimethylpyrimidin-5-yl)-3,4-dihydropyrazino[1,2-a]indol-2(1H)-yl)-4-methoxy-N,N,1-trimethyl-5-((tetrahydro-2H-pyran-4-yl)methoxy)-1H-indole-2-carboxamide] | 2 mL/min/kg | 2 mL/min/kg | 105 ± 8 nM |  |  | 1100 ± 380 nM |  |  |  |  |  | > 12500 nM | 3600 ± 140 nM |  |  | 

Second part, led by results:

Row | clearance [1, 5] | clearance [1, 6] | Ki (Mcl-1; [7]) | Ki (Mcl-1; [8]) | GI50 (NCI-H929 cells; [9]) | GI50 (NCI-H929 cells; [10]) | EC50 [2] | EC50 [3] | EC50 [4] | clearance [1, 12] | Compound | GI50 (A427 cells; [9]) | GI50 (K562 cells) | GI50 (A427 cells; [11]) | H929 Caspase 3/7 maximum activity, fold over vehicle (FoV) [2] | A427 Caspase 3/7 fold over vehicle (FoV) [3] | K562 Caspase 3/7 fold over vehicle (FoV) [4]
6 | 70 mL/min/kg | 70 mL/min/kg |  |  |  |  |  |  |  |  | COc1cc(N2C[C@@H](C)n3c(c(CCCOc4cc(C)c(Cl)c(C)c4)c4ccc(Cl)c(-c5c(C)nn(C)c5C)c43)C2=O)c2c(cc(C(=O)O)n2C)c1OC [Compound 9] |  |  |  |  |  | 
7 |  |  | 0.08 ± 0.01 nM | 0.04 nM | 24 nM |  |  |  |  |  | COc1cc2c3c(cc(C(=O)O)n3CCCOCc3c(c(C)nn3C)-c3c(Cl)ccc4c(CCCOc5cc(C)c(Cl)c(C)c5)c5n(c34)[C@H](C)CN2C5=O)c1OC [Compound 11, (2^63^4 S a ,1^72^2 R a ,2^4 R)-2^7-Chloro-2^10-(3-(4-chloro-3,5-dimethylphenoxy)propyl)-1^4,1^5-dimethoxy-2^4,3^1,3^3-trimethyl-2^1-oxo-2^1,2^2,2^3,2^4-tetrahydro-1^1 H,3^1 H-5-oxa-2(2,6)-pyrazino[1,2-a]indola-1(7,1)-indola-3(4,5)-pyrazolacyclooctaphane-1^2-carboxylic Acid] | 64 nM | > 12500 nM |  |  |  | 
8 |  |  |  | 0.12 nM | 39 nM |  |  |  |  |  | COc1cc2c3c(cc(C(=O)O)n3CCCCOCc3nn(C)c(C)c3-c3c(Cl)ccc4c(CCCOc5cc(C)c(Cl)c(C)c5)c5n(c34)[C@H](C)CN2C5=O)c1OC [Compound 12, (2^63^4 S a ,1^72^2 R a ,24R)-2^7-Chloro-2^10-(3-(4-chloro-3,5-dimethylphenoxy)propyl)-1^4,1^5-dimethoxy-2^4,3^1,3^5-trimethyl-2^1-oxo-2^1,2^2,2^3,2^4-tetrahydro-1^1 H,3^1 H-5-oxa-2(2,6)-pyrazino[1,2-a]indola-1(7,1)-indola-3(4,3)-pyrazolacyclononaphane-1^2-carboxylic Acid] | 87 nM | > 7800 nM |  |  |  | 
